This is an account of results in ChEMBL document CHEMBL1157916, “Cytotoxicity against KB and NCI-H187 cell lines of modified flavonoids from Kaempferia parviflora” (Bioorg Med Chem Lett, 2010).

The test system of test [1] is Vero. The test can be described thus: Selectivity ratio of IC50 for african green monkey Vero cells to IC50 for human NCI-H187 cells.
Test [2] deals with NCI-H187. Description: Selectivity ratio of IC50 of ellipticine to IC50 of compound for human NCI-H187 cells. It counts as functional.
Test [3] deals with NCI-H187. The test can be described thus: Cytotoxicity against human NCI-H187 cells after 5 days by Resazurin Microplate Assay. It counts as functional, cell-based. The note with it: NCI-H187, 120 h. On the technique in general: The colour change of resazurin is a common sign of viable cells or microbes.
In test [4] the test system is Vero. Description: Cytotoxicity against african green monkey Vero cells by green fluorescent protein based assay. Particulars: Chlorocebus sabaeus; call rule not given here. The test is classed as cell-based.
The subject of test [5] is KB. The test can be described thus: Cytotoxicity against human KB cells after 3 days by Resazurin Microplate Assay. The note with it: 72 h. The test is classed as functional, cell-based.
For test [6], the system named is KB. The test can be described thus: Cytotoxicity against human KB cells at >100 uM after 3 days by Resazurin Microplate Assay. The test is classed as functional, cell-based.
Test [7] concerns Vero. The test can be described thus: Cytotoxicity against african green monkey Vero cells at >100 uM by green fluorescent protein based assay. The test is classed as cell-based, Chlorocebus sabaeus.
Test [8] has as its system NCI-H187. Description: Cytotoxicity against human NCI-H187 cells at >100 uM after 5 days by Resazurin Microplate Assay. It counts as functional, cell-based.
In test [9] the test system is Vero. Description: Selectivity ratio of IC50 for african green monkey Vero cells to IC50 for human KB cells.

For `COc1cc(O)c2c(c1)OC(c1ccccc1)C(OC)/C2=N\O` (stereo unspecified), the “fold change (FC)” value in the test on Vero [1] stood at 180; with NCI-H187 [2], 12. Moreover, the results for the IC50 in the test on NCI-H187 [3], with Vero [4] and with KB [5] were 0.23 µM, 41.2 µM and 23.9 µM, respectively.

Consider `COc1cc(OC)c2c(c1)OC(c1ccccc1)C/C2=N\O` (stereo unspecified), for which the 50% inhibitory concentration (IC50) result was “Not Active” with KB [6] and 53.2 µM in the test on NCI-H187 [3].

`COc1ccc(C2C/C(=N\O)c3c(OC)cc(OC)cc3O2)cc1` (stereo unspecified): the IC50 result is “Non-toxic” with Vero [7], 4.04 µM in the test on NCI-H187 [3] and 43.1 µM in the test with KB [5].

Consider `COc1ccc(C2CC(O)c3c(OC)cc(OC)cc3O2)cc1` (stereo unspecified), for which the half-maximal inhibitory concentration (IC50) result in the test on NCI-H187 [8] and with KB [6] was “Not Active” in each case.

`COc1cc(O)c2c(=O)c(OC)c(-c3ccccc3)oc2c1`: the IC50 entry in the test with NCI-H187 [8] is recorded as “Not Active”; in the test with Vero [7], “Non-toxic”; with KB [6], “Not Active”.

As for `COc1cc(O)c2c(c1)OC(c1ccccc1)C/C2=N/O` (stereo unspecified), the “fold change (FC)” value worked out at 190 in the test on Vero [1], 200 in the test with NCI-H187 [2] and 10 with Vero [9]. Moreover, the IC50 in the test on NCI-H187 [3] was found to be 0.014 µM; in the test with Vero [4], 2.67 µM; with KB [5], 0.26 µM.

Consider `O/N=C1\CC(c2ccccc2)Oc2cc(O)cc(O)c21` (stereo unspecified), for which the IC50 entry is “Non-toxic” in the test with Vero [7], 2.32 µM in the test with NCI-H187 [3] and 84.9 µM in the test with KB [5].

Take `COc1cc(OC)c2c(c1)OC(c1ccccc1)CC2O` (stereo unspecified): the IC50 result in the test on NCI-H187 [8] was “Not Active”; in the test with KB [5] it was 92.1 µM.

For `COc1cc(O)c(C(=O)CCc2ccccc2)c(O)c1`, the IC50 entry is “Not Active” with KB [6] and 9.7 µM in the test on NCI-H187 [3].

Take `COc1cc(O)c(C(=O)CCc2ccccc2)c(OC)c1`: the IC50 entry with NCI-H187 [8] and in the test on KB [6] was “Not Active” throughout.

Regarding `COc1ccc(CCC(=O)c2c(O)cc(OC)cc2OC)cc1`, the IC50 entry with NCI-H187 [8] and with KB [6] was “Not Active” each time.

On to `COc1cc(O)c2c(c1)O[C@H](c1ccccc1)[C@H](OC)C2=O` (mixture of isomers), for which the results for the IC50 with NCI-H187 [3] and in the test with KB [5] were 98.2 µM and 30.4 µM, respectively.

Regarding `COc1cc(O)c2c(c1)O[C@H](c1ccccc1)[C@H](OC)[C@@H]2O` (racemic), the results for the IC50 with NCI-H187 [3] and in the test on KB [5] were 95.6 µM and 56.8 µM, respectively.

`COc1ccc(C2CC(=O)c3c(OC)cc(OC)cc3O2)cc1` (racemic): the values for the IC50 with NCI-H187 [3] and with KB [5] were 25.1 µM and 78.8 µM, respectively.

`COc1cc(OC)c2c(=O)cc(-c3ccccc3)oc2c1` [CHRYSIN DIMETHYL ETHER]: the results for the IC50 entry in the test with NCI-H187 [8], in the test with Vero [7] and in the test with KB [6] were “Not Active”, “Non-toxic” and “Not Active”, respectively.

Take `COc1cc(OC)c2c(c1)OC(c1ccccc1)CC2=O` (stereo unspecified) [DIMETHYLPINOCEMBRIN]: the IC50 in the test on NCI-H187 [3] is 33.1 µM; in the test with KB [5], 39.9 µM.

For `Cc1c2ccncc2c(C)c2c1[nH]c1ccccc12` [ELLIPTECINE], the IC50 came to 2.77 µM with NCI-H187 [3], 2.29 µM in the test with Vero [4] and 1.79 µM with KB [5].

Regarding `O=C1C[C@@H](c2ccccc2)Oc2cc(O)cc(O)c21` [PINOCEMBRIN], the IC50 in the test with NCI-H187 [3] is 95.5 µM; in the test with KB [5], 99.2 µM.

Consider `COc1cc(O)c2c(c1)O[C@H](c1ccccc1)CC2=O` [PINOSTROBIN], for which the IC50 entry with NCI-H187 [8] and with KB [6] was “Not Active” throughout.

As for `COc1cc(O)c2c(=O)cc(-c3ccccc3)oc2c1` [TECHTOCHRYSIN], the figures for the IC50 result in the test with NCI-H187 [8], in the test on Vero [7] and in the test with KB [6] were “Not Active”, “Non-toxic” and “Not Active”, respectively.

Regarding `COc1ccc(-c2cc(=O)c3c(OC)cc(OC)cc3o2)cc1` [TRIMETHYLAPIGENIN], the IC50 entry was “Not Active” with NCI-H187 [8], “Non-toxic” in the test on Vero [7] and “Not Active” in the test with KB [6].

As a reminder, the IC50 is the concentration at which inhibition is half-maximal.
